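Compound exposure: 48 hours, 5 concentrations, 96-well plates. Abbreviation: GI50, concentration required for 50% inhibition of growth. TGI denotes the concentration required for complete inhibition of growth.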 Where a SMILES comes first, the peptide text is derived from it. The star is where a group is joined. Trt = c1ccc(C(c2ccccc2)(c2ccccc2)*)cc1; Cbz = O=C(OCc1ccccc1)*
Experiments:
Experiment in all cases: growth of human tumour cells (NCI), 48 h
A549 NSCLC = system: A549 NSCLC
HCT-116 colon = system: HCT-116 colon
HT29 colon = system: HT29 colon
NCI/ADR-RES ovarian = system: NCI/ADR-RES ovarian
OVCAR-3 ovarian = system: OVCAR-3 ovarian
SF-539 CNS = system: SF-539 CNS
SK-MEL-28 melanoma = system: SK-MEL-28 melanoma
T-47D breast = system: T-47D breast
UACC-257 melanoma = system: UACC-257 melanoma
SR leukemia = system: SR leukemia

SMILES | GI50 (A549 NSCLC) [µM] | TGI (A549 NSCLC) [µM] | GI50 (HCT-116 colon) [nM] | TGI (HCT-116 colon) [µM] | GI50 (HT29 colon) [µM] | TGI (HT29 colon) [µM] | GI50 (NCI/ADR-RES ovarian) [µM] | TGI (NCI/ADR-RES ovarian) [µM] | GI50 (OVCAR-3 ovarian) [µM] | TGI (OVCAR-3 ovarian) [µM] | GI50 (SF-539 CNS) [µM] | TGI (SF-539 CNS) [µM] | GI50 (SK-MEL-28 melanoma) [µM] | TGI (SK-MEL-28 melanoma) [µM] | GI50 (T-47D breast) [nM] | TGI (T-47D breast) [µM] | GI50 (UACC-257 melanoma) [µM] | TGI (UACC-257 melanoma) [µM] | TGI (SR leukemia) [µM] | GI50 (SR leukemia) [µM]
CCCN1CCC=C(c2ccc(Nc3nc(Nc4ccccc4C(N)=O)c4cc[nH]c4n3)c(C)c2)C1 | 1.89 | > 25 | 2560 | > 25 | 0.407 | > 13.2 | > 22.4 | > 25 | 17.9 | > 25 | 17.9 | > 25 | > 23.8 | > 25 | > 18300 | > 25 | 2.65 | > 25 | – | –
CCOC(=O)CC(NC(=O)c1ccc(N=NN(C)C)cc1)C(=O)OCC (configuration not stated) | – | > 100 | – | > 100 | – | > 100 | – | – | – | > 100 | – | > 100 | – | > 100 | – | – | – | > 100 | > 100 | –
CC(C)[Si](OCC1CC(C#N)OC(C)(C)O1)(C(C)C)C(C)C (configuration not stated) | – | > 100 | – | 30.1 | – | 37.5 | – | – | – | 29.4 | – | 79 | – | > 100 | – | – | – | 42.7 | 41.5 | –
CC(C)N1C(C)[C@@H](c2ccccc2)O[P@]1(=O)CC1=CCCCC1 (some centres not stated) | – | > 100 | – | > 100 | – | > 100 | – | – | – | > 100 | – | > 100 | – | > 100 | – | – | – | > 100 | > 100 | –
CCCCCCCCCCSC(=N)N | 5.59 | 18.6 | 2960 | 10.1 | 1.42 | 2.84 | 4.8 | 22.3 | 3.71 | 13.8 | 10.2 | 22.1 | 3.67 | 14.1 | 2040 | 4.55 | 2.51 | 6.32 | – | –
CN=C(N)N/N=C(\C)c1ccc2c(c1)Cc1ccccc1-2 | – | – | 1430 | 2.74 | 1.61 | 3.39 | 2.02 | 4.5 | – | – | 1.66 | 3.02 | 2.22 | 4.63 | 1320 | 2.92 | 1.96 | 3.74 | – | –
CCCCCCCCCCCCCCCCCC(=O)NCC(COP(=O)(O)O)OCC (configuration not stated) | – | > 100 | – | > 100 | – | > 100 | – | – | – | > 100 | – | > 100 | – | > 100 | – | – | – | > 100 | > 100 | –
Cc1cc2nc(-c3c(F)cccc3Cl)n(Cc3c(F)cccc3Cl)c2cc1C | 11.7 | 33.1 | 6430 | 20.3 | 10.5 | > 100 | 12.5 | 26.3 | – | – | 17.3 | 34.8 | 24.8 | 55.2 | – | – | 16.4 | 38.3 | > 100 | 17.5
COc1ccc2c(c1)c1c3n2CCNN=C3CCC1 | – | > 100 | – | > 100 | – | > 100 | – | – | – | > 100 | – | > 100 | – | > 100 | – | – | – | > 100 | > 100 | –
c1ccc(-c2ccnc3c2ccc2c(-c4ccccc4)ccnc23)cc1 | – | 8.71 | – | 10.4 | – | 10.8 | – | – | – | 10.1 | – | 5.62 | – | 19.9 | – | – | – | 5.5 | 1.29 | –
Cc1noc(/N=C2\C=C(Nc3onc(C)c3C)C(=O)c3ccccc32)c1C | – | > 100 | – | > 100 | – | > 100 | – | – | – | 83 | – | > 100 | – | > 100 | – | – | – | > 100 | > 100 | –
CCOC(=O)c1c(C)n(Cc2ccccc2)c2c1cc1oc(=O)c(=O)n3cnc2c13 | 13.6 | 45.7 | 7360 | 15.3 | 18.3 | > 50 | 18.5 | > 50 | 12.3 | 34.7 | 14.5 | 37.8 | 40.4 | > 50 | – | – | 17 | 48.3 | > 50 | 7.99
COC(=O)C(CSC(c1ccccc1)(c1ccccc1)c1ccccc1)NC(=O)C(CC(N)=O)NC(=O)OCc1ccccc1 (stereo not drawn) (Cbz-Asn-Cys(Trt)-OMe; configuration not given here) | 4.38 | 51.7 | 2790 | 10.7 | 5.03 | 17.2 | 4.48 | 20.8 | 1.78 | 4.67 | 1.68 | 5.49 | 3.42 | 15.4 | 2130 | 8.33 | 8.92 | 21.7 | – | –
C#CCOCn1cnc2ncnc(N)c21 | – | > 100 | – | > 100 | – | > 100 | – | – | – | > 100 | – | > 100 | – | > 100 | – | – | – | > 100 | > 100 | –
O=C(/C=C/c1ccccc1)CCC1C(=O)NC(=S)NC1=O | – | > 100 | – | > 100 | – | – | – | > 100 | – | > 100 | – | > 100 | – | > 100 | – | > 100 | – | > 100 | – | –
CC(=O)c1c2c(cc3c1CC1(C3)Cc3cc4c(c(C(=O)O)c3C1)CCC4)CCC2 (configuration not stated) | – | > 100 | – | 67.8 | – | > 100 | – | – | – | 47.2 | – | 59.6 | – | > 100 | – | – | – | > 100 | 80.2 | –

Source: PubChem BioAssay (NCI)
